According to patent US6486157B1, “Use of insecticides in pest control” (priority 1998, dated 2002):

Assays:
Assay type in all cases: in vivo
Aphis gossypii = assay: Transgenic vs conventional cotton seedlings, action against Aphis gossypii; conditions: 20° C.; for control on the plants of plot (a) (% action): spray 400 ppm, evaluated after 3 and 6 days; for control level, plot (b): plot (b) conventional cotton seedlings, 3 and 6 days
Description: Cotton seedlings on a plot (a) expressing the δ-endotoxin CryllIa on a plot (a) and conven-tional cotton seedlings on a plot (b) are infected with Aphis gossypi and subsequently sprayed with a spray mixture comprising 400 ppm pymetrozine. immediately afterwards, plot (b) is treated with an emulsion spray mixture comprising 400 ppm of the δ-endotoxin Crylila. The seedlings of plot (a) and (b) are then incubated at 20° C. The test is evaluated after 3 and 6 days.
(§1) The percentage reduction in population (% action) is determined by comparing the number of dead pests on the plants of plot (a) with that on the plants of plot (b).
Cotton seedlings expressing the δ-endotoxin CryIA(c) on a plot (a) and conventional cotton seedlings on a plot (b) are infected with Aphis gossypii and subsequently sprayed with a spray mixture comprising 400 ppm pymetrozine. Immediately afterwards, plot (b) is treated with an emulsion spray mixture comprising 400 ppm of the δ-endotoxin […]. The seedlings of plot (a) and (b) are then incubated at 20° C. The test is evaluated after 3 and 6 days.

Heliothis virescens = assay: Spray test on young transgenic cotton plants, action against Heliothis virescens larvae; conditions: for control of the tested insects in the non-transgenic plant (% action): non-transgenic cotton, spray mixture of active ingredient and conventional CryIIIA-toxin, each 100, 50, 10, 5, 1 ppm, 3 to 10 days; for control of the tested insects in the transgenic plant (% action): spray 100, 50, 10, 5, 1 ppm, evaluation 3 to 10 days, compared with treated non-transgenic cotton
Source text: (§2) Young transgenic cotton plants which express the δ-endotoxin CryIIIA are sprayed with an aqueous emulsion spray mixture comprising 100, 50, 10, 5, 1 ppm of profenofos respectively. After the spray coating has dried on, the cotton plants are populated with 10 adult Anthonomus grandis, 10 Spodoptera littora larvae or 10 Heliothis virescens larvae respectively and introduced into a plastic container. Evaluation takes place 3 to 10 days later. The percentage reduction in population, or the percentage reduction in feeding damage (% action), is determined by comparing the number of dead beetles and the feeding damage on the transgenic cotton plants with that of non-transgenic cotton plants which have been treated with an emulsion spray mixture comprising lufenuron and conventional CryIIIA-toxin at a concentration of in each case 100, 50, 10, 5, 1 ppm respectively.
as §2, with “pymetrozine” for “lufenuron”
as §2, with “express tho” for “express the”, “δ-endotoxin CryIa (c)” for “δ-endotoxin CryIIIA”, “of fenoxycarb” for “of profenofos”, “comprising fenoxycarb” for “comprising lufenuron”, “and con-ventional” for “and conventional”
as §2, with “δ-endotoxin CryIa(c)” for “δ-endotoxin CryIIIA”, “of fenoxycarb” for “of profenofos”, “comprising fenoxycarb” for “comprising lufenuron”
(§3) Young transgenic cotton plants which express the δ-endotoxin CryIa(c) are sprayed with an aqueous emulsion spray mixture comprising 100, 50, 10, 5, 1 ppm of pymetrozine respectively. After the spray coating has dried on, the cotton plants are populated with 10 adult Anthonomus grandis, 10 Spodoptera littora larvae or 10 Heliothis virescens larvae respectively and introduced into a plastic container. Evaluation takes place 3 to 10 days later. […]

Heliothis spp. = assay: Plot test on maize cv. KnockOut vs conventional maize, action against Heliothis spp.; conditions: natural infestation; for control on the plants of plot (a) (% action): plot (a) maize cv. KnockOut, spray 200, 100, 50, 10, 5, 1 ppm, evaluation 6 days later; for control level, plot (b): plot (b) conventional maize, spray 200, 100, 50, 10, 5, 1 ppm plus same ppm of the endotoxin expressed by KnockOut, 6 days
Description: (§4) A plot (a) planted with maize cv. KnockOut® and an adjacent plot (b) of the same size which is planted with conventional maize, both showing natural infestation with Ostrinia nubilalis, Spodoptera sp or Heliothis, are sprayed with an aqueous emulsion spray mixture comprising 200, 100, 50, 10, 5, 1 ppm of fenoxycarb . Immediately afterwards, plot (b) is treated with an emulsion spray mixture comprising 200, 100, 50, 10, 5, 1 ppm of the endotoxin expressed by KnockOut®. Evaluation takes place 6 days later. The percentage reduction in population (% action) is determined by comparing the number of dead pests on the plants of plot (a) with that on the plants of plot (b).
as §4, with “pymetrozine.” for “fenoxycarb .”
(§5) A plot (a) planted with maize cv. KnockOut® and an adjacent plot (b) of the same size which is planted with conventional maize, both showing natural infestation with Ostrinia nubilalis. Spodoptera sp or Heliothis, are sprayed with an aqueous emulsion spray mixture comprising 200, 100, 50, 10, 5, 1ppm of lufenuron. Immediately afterwards, plot (b) is treated with an emulsion spray mixture comprising 200, 100, 50, 10, 5, 1 ppm of the endotoxin expressed by KnockOut®. Evaluation takes place 6 days later. The percentage reduction in population (% action) is determined by comparing the number of dead pests on the plants of plot (a) with that on the plants of plot (b).

Spodoptera spp. = assay: Plot test on maize cv. KnockOut vs conventional maize, action against Spodoptera spp.; conditions: natural infestation; for control on the plants of plot (a) (% action): plot (a) maize cv. KnockOut, spray 200, 100, 50, 10, 5, 1 ppm, evaluation 6 days later; for control level, plot (b): plot (b) conventional maize, spray 200, 100, 50, 10, 5, 1 ppm plus same ppm of the endotoxin expressed by KnockOut, 6 days
Description: as §4
as §4, with “pymetrozine.” for “fenoxycarb .”
as §5

Ostrinia nubilalis = assay: Plot test on maize cv. KnockOut vs conventional maize, action against Ostrinia nubilalis; conditions: natural infestation; for control on the plants of plot (a) (% action): plot (a) maize cv. KnockOut, spray 200, 100, 50, 10, 5, 1 ppm, evaluation 6 days later; for control level, plot (b): plot (b) conventional maize, spray 200, 100, 50, 10, 5, 1 ppm plus same ppm of the endotoxin expressed by KnockOut, 6 days
Description: as §4
as §4, with “pymetrozine.” for “fenoxycarb .”
as §5

Anthonomus grandis = assay: Spray test on young transgenic cotton plants, action against Anthonomus grandis adults; conditions: for control of the tested insects in the non-transgenic plant (% action): non-transgenic cotton, spray mixture of active ingredient and conventional CryIIIA-toxin, each 100, 50, 10, 5, 1 ppm, 3 to 10 days; for control of the tested insects in the transgenic plant (% action): spray 100, 50, 10, 5, 1 ppm, evaluation 3 to 10 days, compared with treated non-transgenic cotton
Source text: as §2
as §2, with “pymetrozine” for “lufenuron”
as §2, with “express tho” for “express the”, “δ-endotoxin CryIa (c)” for “δ-endotoxin CryIIIA”, “of fenoxycarb” for “of profenofos”, “comprising fenoxycarb” for “comprising lufenuron”, “and con-ventional” for “and conventional”
as §2, with “δ-endotoxin CryIa(c)” for “δ-endotoxin CryIIIA”, “of fenoxycarb” for “of profenofos”, “comprising fenoxycarb” for “comprising lufenuron”
as §3

Spodoptera littoralis = assay: Spray test on young transgenic cotton plants, action against Spodoptera littoralis larvae; conditions: for control of the tested insects in the non-transgenic plant (% action): non-transgenic cotton, spray mixture of active ingredient and conventional CryIIIA-toxin, each 100, 50, 10, 5, 1 ppm, 3 to 10 days; for control of the tested insects in the transgenic plant (% action): spray 100, 50, 10, 5, 1 ppm, evaluation 3 to 10 days, compared with treated non-transgenic cotton
Source text: as §2
as §2, with “pymetrozine” for “lufenuron”
as §2, with “express tho” for “express the”, “δ-endotoxin CryIa (c)” for “δ-endotoxin CryIIIA”, “of fenoxycarb” for “of profenofos”, “comprising fenoxycarb” for “comprising lufenuron”, “and con-ventional” for “and conventional”
as §2, with “δ-endotoxin CryIa(c)” for “δ-endotoxin CryIIIA”, “of fenoxycarb” for “of profenofos”, “comprising fenoxycarb” for “comprising lufenuron”
as §3

[1] = tested on: Frankliniella occidentalis; assay: Transgenic vs conventional cotton seedlings, action against Frankliniella occidentalis; conditions: 20° C.; for control on the plants of plot (a) (% action): spray 400 ppm, evaluated after 3 and 6 days; for control level, plot (b): plot (b) conventional cotton seedlings, 3 and 6 days
Description: Cotton seedlings expressing the δ-endotoxin Crylila on a plot (a) and conventional cotton seedlings on a plot (b) are infected with Frankliniella occidentalis and subsequently sprayed with a spray mixture comprising 400 ppm lufenuron. Immediately afterwards, plot (b) is treated with an emulsion spray mixture comprising 400 ppm of the S-endotoxin CrylIla. The seedlings of plot (a) and (b) are then incubated at 20° C. The test is evaluated after 3 and 6 days.
as §1
Cotton seedlings expressing the δ-endotoxin CryIa(c) on a plot (a) and conventional cotton seedlings on a plot (b) are infected with Frankliniella occidentalis and subsequently sprayed with a spray mixture comprising 400 ppm lufenuron. Immediately afterwards, plot (b) is treated with an emulsion spray mixture comprising 400 ppm of the δ-endotoxin CryIa(c). The seedlings of plot (a) and (b) are then incubated at 20° C. The test is evaluated after 3 and 6 days.

[2] = plot (a) cotton seedlings expressing δ-endotoxin CryIa(c)
[3] = transgenic cotton expressing δ-endotoxin CryIa(c)
[4] = transgenic cotton expressing δ-endotoxin CryIIIA

Row | Structure (SMILES) | control of the tested insects in the non-transgenic plant (% action) (Heliothis virescens) | control of the tested insects in the transgenic plant (% action) (Heliothis virescens; [3]) | control on the plants of plot (a) (% action) (Heliothis spp.) | control level, plot (b) (Heliothis spp.) | control on the plants of plot (a) (% action) (Spodoptera spp.) | control level, plot (b) (Spodoptera spp.) | control on the plants of plot (a) (% action) (Ostrinia nubilalis) | control level, plot (b) (Ostrinia nubilalis) | control of the tested insects in the non-transgenic plant (% action) (Anthonomus grandis) | control of the tested insects in the transgenic plant (% action) (Anthonomus grandis; [3]) | control of the tested insects in the non-transgenic plant (% action) (Spodoptera littoralis) | control of the tested insects in the transgenic plant (% action) (Spodoptera littoralis; [3]) | also measured
1 | CC1=NNC(=O)N(N=Cc2cccnc2)C1 [pymetrozine, 2,3,4,5-Tetrahydro-3-oxo-4-[(pyridin-3-yl)-methylenamino]-6-methyl-1,2,4-triazin] | insufficient | superior | Improved control | ≤ 60% | Improved control | ≤ 60% | Improved control | ≤ 60% | insufficient | superior | insufficient | superior | control on the plants of plot (a) (% action) (Aphis gossypii; [2]): Improved control; control on the plants of plot (a) (% action) (Aphis gossypii; plot (a) cotton seedlings expressing δ-endotoxin CryllIa): Improved control; control level, plot (b) (Aphis gossypii; spray 400 ppm plus 400 ppm of δ-endotoxin Crylila): ≤ 60%; control level, plot (b) (Aphis gossypii; spray 400 ppm plus 400 ppm of δ-endotoxin Crylla): ≤ 60%
2 | CCCSP(=O)(OCC)Oc1ccc(Br)cc1Cl (centres unmarked) [profenofos, O-4-Brom-2-chlorphenyl O-Ethyl S-Propyl Phosphorothioat] | – | – | – | – | – | – | – | – | – | – | – | – | control of the tested insects in the transgenic plant (% action) (Heliothis virescens; [4]): superior; control of the tested insects in the transgenic plant (% action) (Anthonomus grandis; [4]): superior; control of the tested insects in the transgenic plant (% action) (Spodoptera littoralis; [4]): superior
3 | CCOC(=O)NCCOc1ccc(Oc2ccccc2)cc1 [fenoxycarb, Ethyl 2-(4-Phenoxyphenoxy)ethylcarbamat] | insufficient | superior | Improved control | ≤ 60% | Improved control | ≤ 60% | Improved control | ≤ 60% | insufficient | superior | insufficient | superior | –
4 | O=C(NC(=O)c1c(F)cccc1F)Nc1cc(Cl)c(OC(F)(F)C(F)C(F)(F)F)cc1Cl (centres unmarked) [lufenuron] | insufficient | superior | Improved control | ≤ 60% | Improved control | ≤ 60% | Improved control | ≤ 60% | insufficient | superior | insufficient | superior | control on the plants of plot (a) (% action) [1, 2]: Improved control; control on the plants of plot (a) (% action) ([1]; plot (a) cotton seedlings expressing δ-endotoxin Crylila): Improved control; control level, plot (b) ([1]; spray 400 ppm plus 400 ppm of endotoxin CrylIla): ≤ 60%; control level, plot (b) ([1]; spray 400 ppm plus 400 ppm of δ-endotoxin CryIa(c)): ≤ 60%
